The source of these data is ChEMBL document CHEMBL5042487, “Design, synthesis, and biological activity evaluation of 2-(benzo[b]thiophen-2-yl)-4-phenyl-4,5-dihydrooxazole derivatives as broad-spectrum antifungal agents” (Eur J Med Chem, 2022).

≈ marks a conversion by molar mass, not a printed value.

Data set [1] is described as follows: Stability in human plasma assessed as compound remaining incubated for 120 mins by LC-MS/MS analysis. The format is ADME, cell-free. As to conditions: 2 h.
Data set [2] in a line: Metabolic stability in human liver microsomes assessed as half life at 100 uM pre-incubated for 10 mins followed by NADPH-regenerating system and measured upto 60 mins by LC-MS/MS analysis. The class given is ADME, Microsome. The settings on record: time <=70 min. (Liver microsomes are a subcellular fraction often used to study metabolism.)
In another data set the target is Cytochrome P450 2C19 (Homo sapiens, UniProt P33261). Briefly: Inhibition of CYP2C19 in human liver microsomes incubated for 10 mins in presence of NADPH by LC/MS/MS analysis. The format is ADME.
The test system of data set [3] is Candida albicans. The experiment in a line: Antifungal activity against fluconazole and itraconazole resistant Candida albicans 17# assessed as inhibition of fungal growth by NCCLS protocol based method. The class given is functional.
Data set [4] in a line: Stability in human plasma assessed as compound remaining incubated for 60 mins by LC-MS/MS analysis. The settings on record: read-out: Stability. The class given is ADME, cell-free.
Data set [5] can be described thus: Metabolic stability in human liver microsomes assessed as parent compound remaining incubated upto 60 mins by LC-MS/MS analysis. The format is ADME, Microsome. As to conditions: read-out: Stability.
For data set [6], the system named is Candida albicans. Briefly: Antifungal activity against Candida albicans SC5314 assessed as inhibition of fungal growth by NCCLS protocol based method. The class given is functional.
Data set [7] in a line: Metabolic stability in human liver microsomes assessed as microsomal intrinsic clearance at 100 uM pre-incubated for 10 mins followed by NADPH-regenerating system and measured upto 60 mins by LC-MS/MS analysis. The format is ADME, Microsome. The settings on record: time <=70 min, read-out: CLH.
Data set [8] is described as follows: Stability in human plasma assessed as half life incubated for 60 mins by LC-MS/MS analysis. The class given is ADME, cell-free.
A further data set deals with Cytochrome P450 2C9 (Homo sapiens, UniProt P11712). The experiment in a line: Inhibition of CYP2C9 in human liver microsomes incubated for 10 mins in presence of NADPH by LC/MS/MS analysis. The format is ADME.
In another data set the test system is Cryptococcus neoformans. The experiment in a line: Antifungal activity against Cryptococcus neoformans GIM 2.209 assessed as inhibition of fungal growth by NCCLS protocol based method. The format is functional.
Data set [9] has as its system Candida albicans. The experiment in a line: Antifungal activity against Candida albicans GIM 2.194 assessed as inhibition of fungal growth by NCCLS protocol based method. The class given is functional.
Data set [10] deals with Candida albicans. The experiment in a line: Antifungal activity against fluconazole resistant Candida albicans CaR assessed as inhibition of fungal growth by NCCLS protocol based method. The format is functional.
For a further data set, the target named is T1, Cytochrome P450 1A2 (Homo sapiens, UniProt P05177).
T1 sequence (P05177 whole entry): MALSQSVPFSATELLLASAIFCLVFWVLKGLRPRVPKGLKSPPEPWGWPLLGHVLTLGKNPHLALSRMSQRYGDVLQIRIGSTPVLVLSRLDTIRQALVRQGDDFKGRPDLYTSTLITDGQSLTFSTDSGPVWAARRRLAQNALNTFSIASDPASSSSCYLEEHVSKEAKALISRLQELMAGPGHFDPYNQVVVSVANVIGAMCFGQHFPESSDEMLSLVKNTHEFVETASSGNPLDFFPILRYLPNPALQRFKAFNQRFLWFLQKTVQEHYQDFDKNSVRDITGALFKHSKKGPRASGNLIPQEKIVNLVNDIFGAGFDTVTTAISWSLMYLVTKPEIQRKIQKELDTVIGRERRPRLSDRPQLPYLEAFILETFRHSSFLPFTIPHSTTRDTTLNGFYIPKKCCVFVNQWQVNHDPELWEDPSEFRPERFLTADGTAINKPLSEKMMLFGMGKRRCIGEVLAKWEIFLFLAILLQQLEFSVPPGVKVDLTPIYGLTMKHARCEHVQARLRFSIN
The experiment in a line: Inhibition of CYP1A2 in human liver microsomes incubated for 10 mins in presence of NADPH by LC/MS/MS analysis. The format is ADME.

For another data set, the target named is Cytochrome P450 3A4 (Homo sapiens, UniProt P08684). The experiment in a line: Inhibition of CYP3A4 in human liver microsomes incubated for 10 mins in presence of NADPH by LC/MS/MS analysis. The class given is ADME.
The target of the next data set is Cytochrome P450 2D6 (Homo sapiens, UniProt P10635). Briefly: Inhibition of CYP2D6 in human liver microsomes incubated for 10 mins in presence of NADPH by LC/MS/MS analysis. The class given is ADME.
A further data set deals with Aspergillus fumigatus. The experiment in a line: Antifungal activity against Aspergillus fumigatus CGMCC 3.7795 assessed as inhibition of fungal growth by NCCLS protocol based method. The format is functional.
Data set [11] can be described thus: Metabolic stability in human liver microsomes assessed as liver intrinsic clearance at 100 uM pre-incubated for 10 mins followed by NADPH-regenerating system and measured upto 60 mins by LC-MS/MS analysis. The class given is ADME, Microsome. The settings on record: time <=70 min, read-out: CLH.
The nature of data set [12]: Metabolic stability in human liver microsomes assessed as parent compound remaining at 100 uM pre-incubated for 10 mins followed by NADPH-regenerating system and measured upto 60 mins by LC-MS/MS analysis. The settings on record: time <=70 min, read-out: Stability. The class given is ADME, Microsome.
A further data set deals with Candida tropicalis. Briefly: Antifungal activity against Candida tropicalis GIM 2.183 assessed as inhibition of fungal growth by NCCLS protocol based method. The class given is functional.
The nature of data set [13]: Volume of distribution at steady state in Sprague-Dawley rat at 2 mg/kg, iv measured upto 24 hrs by LC/MS/MS analysis. The class given is ADME, organism-based. The settings on record: in vivo, read-out: Vdss.
Data set [14] is described as follows: Clearance in Sprague-Dawley rat at 2 mg/kg, iv measured upto 24 hrs by LC/MS/MS analysis. The settings on record: in vivo. The format is ADME, organism-based.
A short description of data set [15]: Initial plasma concentration in Sprague-Dawley rat at 2 mg/kg, iv measured upto 24 hrs by LC/MS/MS analysis. The format is ADME, organism-based.
The nature of data set [16]: AUC(0 to last) in Sprague-Dawley rat at 2 mg/kg, iv measured upto 24 hrs by LC/MS/MS analysis. The class given is ADME, organism-based. Also on record: route intravenous, dose 2 mg/kg, time <=24. As to conditions: in vivo.
The nature of data set [17]: AUC (0 to infinity) in Sprague-Dawley rat at 2 mg/kg, iv measured upto 24 hrs by LC/MS/MS analysis. The class given is ADME, organism-based. The arrangement: route intravenous, dose 2 mg/kg, time <=24. The settings on record: in vivo.
The nature of data set [18]: Half life in Sprague-Dawley rat at 2 mg/kg, iv measured upto 24 hrs by LC/MS/MS analysis. The format is ADME, organism-based. The settings on record: in vivo.

Sequence of Cytochrome P450 3A4 (P08684 whole entry): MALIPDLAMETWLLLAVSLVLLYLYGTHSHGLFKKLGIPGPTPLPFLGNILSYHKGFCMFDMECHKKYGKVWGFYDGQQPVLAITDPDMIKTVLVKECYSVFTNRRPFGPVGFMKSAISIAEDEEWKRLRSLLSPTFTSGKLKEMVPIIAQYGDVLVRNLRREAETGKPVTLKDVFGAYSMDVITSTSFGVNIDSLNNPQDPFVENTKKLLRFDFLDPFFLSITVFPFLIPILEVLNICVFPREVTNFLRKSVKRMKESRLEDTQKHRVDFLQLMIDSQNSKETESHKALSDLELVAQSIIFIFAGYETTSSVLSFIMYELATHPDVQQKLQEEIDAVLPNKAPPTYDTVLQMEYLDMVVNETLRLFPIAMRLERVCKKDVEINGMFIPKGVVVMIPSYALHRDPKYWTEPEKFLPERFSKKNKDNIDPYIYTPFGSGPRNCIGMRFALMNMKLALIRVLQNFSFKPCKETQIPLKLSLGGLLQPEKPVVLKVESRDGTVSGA
Sequence of Cytochrome P450 2C19 (P33261 whole entry): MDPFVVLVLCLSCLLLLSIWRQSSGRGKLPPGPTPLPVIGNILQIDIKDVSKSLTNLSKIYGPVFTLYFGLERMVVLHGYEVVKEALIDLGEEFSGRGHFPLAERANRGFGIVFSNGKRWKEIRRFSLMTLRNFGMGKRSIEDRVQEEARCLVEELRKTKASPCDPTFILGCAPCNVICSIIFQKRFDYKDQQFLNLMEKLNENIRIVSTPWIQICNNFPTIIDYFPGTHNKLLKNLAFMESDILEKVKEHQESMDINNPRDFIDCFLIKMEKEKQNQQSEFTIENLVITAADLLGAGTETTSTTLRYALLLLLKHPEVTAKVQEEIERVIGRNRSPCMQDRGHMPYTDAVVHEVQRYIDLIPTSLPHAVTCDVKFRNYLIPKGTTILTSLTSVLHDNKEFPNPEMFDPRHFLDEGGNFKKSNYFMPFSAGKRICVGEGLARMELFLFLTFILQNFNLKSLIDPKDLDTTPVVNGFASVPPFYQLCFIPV
Sequence of Cytochrome P450 2D6 (P10635 whole entry): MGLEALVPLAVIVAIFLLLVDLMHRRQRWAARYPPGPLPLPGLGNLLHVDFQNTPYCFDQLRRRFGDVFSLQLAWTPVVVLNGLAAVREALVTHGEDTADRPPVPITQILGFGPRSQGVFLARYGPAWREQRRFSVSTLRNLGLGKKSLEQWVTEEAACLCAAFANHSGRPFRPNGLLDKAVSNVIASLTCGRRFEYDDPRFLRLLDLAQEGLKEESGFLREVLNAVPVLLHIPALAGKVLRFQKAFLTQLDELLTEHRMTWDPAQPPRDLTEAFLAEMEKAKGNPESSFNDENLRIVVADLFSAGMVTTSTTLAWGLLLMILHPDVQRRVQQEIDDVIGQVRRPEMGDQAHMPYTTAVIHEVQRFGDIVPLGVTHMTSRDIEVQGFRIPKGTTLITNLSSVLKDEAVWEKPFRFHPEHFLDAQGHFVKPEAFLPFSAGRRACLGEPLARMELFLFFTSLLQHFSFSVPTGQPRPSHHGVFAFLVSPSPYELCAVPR
Sequence of Cytochrome P450 2C9 (P11712 whole entry): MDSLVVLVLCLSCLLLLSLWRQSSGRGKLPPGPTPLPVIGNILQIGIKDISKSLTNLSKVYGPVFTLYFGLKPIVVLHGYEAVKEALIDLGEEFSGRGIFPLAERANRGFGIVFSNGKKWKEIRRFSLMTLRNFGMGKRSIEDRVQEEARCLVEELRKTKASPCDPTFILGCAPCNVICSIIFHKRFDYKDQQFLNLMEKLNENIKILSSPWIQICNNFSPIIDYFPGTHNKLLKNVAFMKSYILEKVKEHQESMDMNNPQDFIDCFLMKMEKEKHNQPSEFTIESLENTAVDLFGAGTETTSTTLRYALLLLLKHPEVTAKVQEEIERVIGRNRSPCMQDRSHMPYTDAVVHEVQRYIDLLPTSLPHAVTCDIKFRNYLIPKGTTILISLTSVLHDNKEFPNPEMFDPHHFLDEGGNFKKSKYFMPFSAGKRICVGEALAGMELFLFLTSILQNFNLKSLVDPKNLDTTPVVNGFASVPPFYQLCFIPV

A word on the half-life: it is the time in which the quantity being followed falls by half. The IC50 is the point on the concentration scale where inhibition reaches its midpoint. Broadly, the MIC is the least concentration at which growth counts as inhibited. In the case of `Clc1ccc(C2(Cn3cncn3)COC(c3cc4ccc(Cl)cc4s3)=N2)cc1` (stereo unspecified), the Stability in data set [1] is reported as 116.1%. Moreover, in data set [2], the half-life at 100 µM was determined as 1.16 h. For the same molecule, the IC50 at Cytochrome P450 2C19 turned out to be 0.168 µM; on Cytochrome P450 2C9, 1.5 µM; on Cytochrome P450 1A2 it was 5.67 µM; at Cytochrome P450 3A4 it was 29.1 µM; on Cytochrome P450 2D6 it was 47.6 µM. The MIC with Candida albicans [3] is over 64 µg/mL; with Candida albicans [6] it was under 0.03 µg/mL; in the data set on Cryptococcus neoformans, 0.5 µg/mL (≈ 1.16 µM); in the data set with Candida albicans [9] it was under 0.03 µg/mL; with Candida albicans [10], 0.5 µg/mL (≈ 1.16 µM); in the data set with Aspergillus fumigatus, 2 µg/mL (≈ 4.66 µM). In the data set with Candida tropicalis, the MIC was determined as 0.06 µg/mL (≈ 0.14 µM). In addition, the results for the remaining at 1 h in data set [4] and in data set [5] were 92.7% and 77.3%, respectively. The microsomal CLint at 100 µM in [7] stood at 20 µL/min/mg. Besides, the half-life in data set [8] is over 4.82 h. Moreover, the CLint scaled at 100 µM in [11] is 18 mL/min/kg. Further, the remaining at 1 h, 100 µM in data set [12] turned out to be 49.9%.
Usually clearance stands for the rate of elimination divided by the concentration. The AUC(0-t) is exposure summed from dosing to a finite time, without extrapolation to infinity. Low readings indicate low exposure, high ones high exposure. The AUC(0-inf) is total exposure, with the tail of the curve extrapolated. Read a high AUC(0-inf) as high exposure. Turning to `Fc1ccc(C2(Cn3cncn3)COC(c3cc4ccc(Cl)cc4s3)=N2)cc1` (stereo unspecified), the Stability in data set [1] came to 108.2%. In data set [2], the half-life at 100 µM is 1.34 h. Further, the IC50 on Cytochrome P450 2C19 amounted to 1.04 µM; at Cytochrome P450 2C9, 2.87 µM; at Cytochrome P450 1A2 it was 4.47 µM; at Cytochrome P450 3A4, 10.1 µM; at Cytochrome P450 2D6 it was 31.3 µM. The MIC with Candida albicans [3] was over 64 µg/mL; in the data set on Candida albicans [6] it was under 0.03 µg/mL; in the data set with Cryptococcus neoformans, 0.25 µg/mL (≈ 0.606 µM); with Candida albicans [9], under 0.03 µg/mL; in the data set with Candida albicans [10], 0.5 µg/mL (≈ 1.21 µM); with Aspergillus fumigatus, 0.5 µg/mL (≈ 1.21 µM). In addition, the MIC in the data set on Candida tropicalis was under 0.03 µg/mL. Further, the remaining at 1 h in data set [4] came to 92.6%; in data set [5], 82.6%. Further, the Vd in [13] is 10.3 L/kg. Also, the clearance in data set [14] was 69.4 mL/min/kg. Further, the microsomal CLint at 100 µM in [7] is 17.2 µL/min/mg. The figures for the half-life in data set [8] and in [18] were over 4.82 h and 3.34 h, respectively. In data set [15], this molecule displayed a C0 at 24 h of 482 ng/mL. In data set [16], this molecule returned an exposure AUC(0-t) at 24 h of 483 ng·h/mL. Besides, the CLint scaled at 100 µM in data set [11] is 15.5 mL/min/kg. Further, the remaining at 1 h, 100 µM in [12] is 54.6%. In data set [17], this molecule displayed an AUC(0-inf) of 505 ng·h/mL.
